Reference: ChEMBL document CHEMBL1155703, “Sequences and antimycoplasmic properties of longibrachins LGB II and LGB III, two novel 20-residue peptaibols from Trichoderma longibrachiatum” (J Nat Prod, 2001)
Converted amounts (≈) assume the structure as drawn. Square brackets hold non-standard residues; d marks the D form. Peptide text beside a SMILES is read from it. * marks the point of attachment. X2 = OC[C@H](Cc1c[nH]c2ccccc12)N*; Phe(ol) = N[C@H](CO)Cc1ccccc1; X1 = COC[C@H](Cc1ccccc1)N*; Aib = CC(C)(N)C(=O)O

What was measured:
[1] = Bilayer membrane permeabilization assessed as lipid to peptide ratio allowing 50% leakage of entrapped carboxyfluorescein from egg phosphatidylcholine-cholesterol liposomes at 1.36 uM at 20 mins by spectrofluorimetry; format: physicochemical
[2] = Bilayer membrane permeabilization assessed as lipid to peptide ratio allowing 50% leakage of entrapped carboxyfluorescein from egg phosphatidylcholine-cholesterol liposomes at 0.18 uM at 20 mins by spectrofluorimetry; format: physicochemical
[3] = Bilayer membrane permeabilization assessed as lipid to peptide ratio allowing 50% leakage of entrapped carboxyfluorescein from egg phosphatidylcholine-cholesterol liposomes at 0.45 uM at 20 mins by spectrofluorimetry; format: physicochemical
[4] = test system: Acholeplasma laidlawii; assay: Antimicrobial activity against Acholeplasma laidlawii PG-8A after 2 hrs; format: functional; conditions: for MIC: Acholeplasma laidlawii, PG-8A, 2 h
[5] = test system: Mycoplasmoides gallisepticum; assay: Antimicrobial activity against Mycoplasma gallisepticum S6 after 2 hrs; format: functional; conditions: for MIC: Mycoplasmoides gallisepticum, S6, 2 h
[6] = test system: Mycoplasma mycoides subsp. mycoides SC; assay: Antimicrobial activity against Mycoplasma mycoides subsp. mycoides SC KH3J after 2 hrs; format: functional
[7] = test system: Spiroplasma apis; assay: Antimicrobial activity against Spiroplasma apis B31 after 2 hrs; format: functional; conditions: for MIC: Spiroplasma apis, B31, 2 h
[8] = test system: Spiroplasma citri; assay: Antimicrobial activity against Spiroplasma citri R8A2 after 2 hrs; format: functional; conditions: R8A2, 2 h
[9] = test system: Spiroplasma floricola; assay: Antimicrobial activity against Spiroplasma floricola BNR1 after 2 hrs; format: functional; conditions: for MIC: Spiroplasma floricola, BNR1, 2 h
[10] = Bilayer membrane permeabilization assessed as lipid to peptide ratio allowing 50% leakage of entrapped carboxyfluorescein from egg phosphatidylcholine-cholesterol liposomes at 0.36 uM at 20 mins by spectrofluorimetry; format: physicochemical
[11] = Bilayer membrane permeabilization assessed as lipid to peptide ratio allowing 50% leakage of entrapped carboxyfluorescein from egg phosphatidylcholine-cholesterol liposomes at 0.98 uM at 20 mins by spectrofluorimetry; format: physicochemical

CC[C@H](C)[C@H](NC(=O)C(C)(C)NC(=O)[C@@H](NC(=O)[C@@H]1CCCN1C(=O)C(C)(C)NC(=O)[C@H](CC(C)C)NC(=O)[C@H](CO)NC(=O)C(C)(C)NC(=O)C(C)(C)NC(=O)C(C)(C)NC(=O)[C@H](CCC(N)=O)NC(=O)C(C)(C)NC(=O)C(C)(C)NC(=O)[C@H](C)NC(=O)[C@H](C)NC(=O)C(C)(C)NC(C)=O)C(C)C)C(=O)N[C@@H](CCC(N)=O)C(=O)N[C@@H](CCC(=O)O)C(=O)N[C@H](CO)Cc1c[nH]c2ccccc12 (Ac-[Aib]AA[Aib][Aib]Q[Aib][Aib][Aib]SL[Aib]PV[Aib]IQE-X2)
Ratio [1]: 295

CC[C@H](C)[C@H](NC(=O)C(C)(C)NC(=O)[C@@H](NC(=O)[C@@H]1CCCN1C(=O)C(C)(C)NC(=O)[C@H](CC(C)C)NC(=O)[C@H](CO)NC(=O)C(C)(C)NC(=O)C(C)(C)NC(=O)C(C)(C)NC(=O)[C@H](CCC(N)=O)NC(=O)C(C)(C)NC(=O)C(C)(C)NC(=O)[C@H](C)NC(=O)[C@H](C)NC(=O)C(C)(C)NC(C)=O)C(C)C)C(=O)N[C@@H](CCC(N)=O)C(=O)N[C@@H](CCC(N)=O)C(=O)N[C@H](CO)Cc1c[nH]c2ccccc12 (Ac-[Aib]AA[Aib][Aib]Q[Aib][Aib][Aib]SL[Aib]PV[Aib]IQQ-X2)
Ratio [2]: 2220

COC[C@H](Cc1ccccc1)NC(=O)[C@H](CCC(N)=O)NC(=O)[C@H](CCC(=O)O)NC(=O)C(C)(C)NC(=O)C(C)(C)NC(=O)[C@@H](NC(=O)[C@@H]1CCCN1C(=O)C(C)(C)NC(=O)[C@H](CC(C)C)NC(=O)CNC(=O)C(C)(C)NC(=O)[C@@H](NC(=O)C(C)(C)NC(=O)[C@H](CCC(N)=O)NC(=O)[C@H](C)NC(=O)C(C)(C)NC(=O)[C@H](C)NC(=O)C(C)(C)NC(=O)[C@H](C)NC(=O)C(C)(C)NC(C)=O)C(C)C)C(C)C (Ac-[Aib]A[Aib]A[Aib]AQ[Aib]V[Aib]GL[Aib]PV[Aib][Aib]EQ-X1)
Ratio [3]: 1335

CC(=O)NC(C)(C)C(=O)N[C@@H](C)C(=O)NC(C)(C)C(=O)N[C@@H](C)C(=O)NC(C)(C)C(=O)N[C@@H](C)C(=O)N[C@@H](CCC(N)=O)C(=O)NC(C)(C)C(=O)N[C@H](C(=O)NC(C)(C)C(=O)NCC(=O)N[C@@H](CC(C)C)C(=O)NC(C)(C)C(=O)N1CCC[C@H]1C(=O)N[C@H](C(=O)NC(C)(C)C(=O)NC(C)(C)C(=O)N[C@@H](CCC(=O)O)C(=O)N[C@@H](CCC(N)=O)C(=O)N[C@H](CO)Cc1ccccc1)C(C)C)C(C)C (Ac-[Aib]A[Aib]A[Aib]AQ[Aib]V[Aib]GL[Aib]PV[Aib][Aib]EQ[Phe(ol)])
MLC [4]: 3.12 µM (≈ 6.05 µg/mL) | MIC [4]: 1.56 µM (≈ 3.02 µg/mL) | MLC [5]: 3.12 µM (≈ 6.05 µg/mL) | MIC [5]: 6.25 µM (≈ 12.1 µg/mL) | MIC [6]: 12.5 µM (≈ 24.2 µg/mL) | MLC [7]: 3.12 µM (≈ 6.05 µg/mL) | MIC [7]: 12.5 µM (≈ 24.2 µg/mL) | MIC [8]: 6.25 µM (≈ 12.1 µg/mL) | MLC [9]: 3.12 µM (≈ 6.05 µg/mL) | MIC [9]: 12.5 µM (≈ 24.2 µg/mL)

CC(=O)NC(C)(C)C(=O)N[C@@H](C)C(=O)NC(C)(C)C(=O)N[C@@H](C)C(=O)NC(C)(C)C(=O)N[C@@H](C)C(=O)N[C@@H](CCC(N)=O)C(=O)NC(C)(C)C(=O)N[C@H](C(=O)NC(C)(C)C(=O)NCC(=O)N[C@@H](CC(C)C)C(=O)NC(C)(C)C(=O)N1CCC[C@H]1C(=O)N[C@H](C(=O)NC(C)(C)C(=O)NC(C)(C)C(=O)N[C@@H](CCC(N)=O)C(=O)N[C@@H](CCC(N)=O)C(=O)N[C@H](CO)Cc1ccccc1)C(C)C)C(C)C (Ac-[Aib]A[Aib]A[Aib]AQ[Aib]V[Aib]GL[Aib]PV[Aib][Aib]QQ[Phe(ol)])
Ratio [10]: 1667

CC(=O)NC(C)(C)C(=O)N[C@@H](C)C(=O)NC(C)(C)C(=O)N[C@@H](C)C(=O)NC(C)(C)C(=O)NC(C)(C)C(=O)N[C@@H](CCC(N)=O)C(=O)NC(C)(C)C(=O)N[C@H](C(=O)NC(C)(C)C(=O)NCC(=O)N[C@@H](CC(C)C)C(=O)NC(C)(C)C(=O)N1CCC[C@H]1C(=O)N[C@H](C(=O)NC(C)(C)C(=O)NC(C)(C)C(=O)N[C@@H](CCC(N)=O)C(=O)N[C@@H](CCC(N)=O)C(=O)N[C@H](CO)Cc1ccccc1)C(C)C)C(C)C (Ac-[Aib]A[Aib]A[Aib][Aib]Q[Aib]V[Aib]GL[Aib]PV[Aib][Aib]QQ[Phe(ol)])
Ratio [11]: 1820

CC(=O)NC(C)(C)C(=O)N1CCC[C@H]1C(=O)NC(C)(C)C(=O)N[C@@H](C)C(=O)NC(C)(C)C(=O)N[C@@H](C)C(=O)N[C@@H](CCC(N)=O)C(=O)NC(C)(C)C(=O)N[C@H](C(=O)NC(C)(C)C(=O)NCC(=O)N[C@@H](CC(C)C)C(=O)NC(C)(C)C(=O)N1CCC[C@H]1C(=O)N[C@H](C(=O)NC(C)(C)C(=O)NC(C)(C)C(=O)N[C@@H](CCC(N)=O)C(=O)N[C@@H](CCC(N)=O)C(=O)N[C@H](CO)Cc1ccccc1)C(C)C)C(C)C [ALAMETHICIN F50] (Ac-[Aib]P[Aib]A[Aib]AQ[Aib]V[Aib]GL[Aib]PV[Aib][Aib]QQ[Phe(ol)])
MIC [4]: 1.56 µM (≈ 3.06 µg/mL) | MIC [5]: 6.25 µM (≈ 12.3 µg/mL) | MIC [6]: 12.5 µM (≈ 24.5 µg/mL) | MIC [7]: 6.25 µM (≈ 12.3 µg/mL) | MIC [8]: 3.12 µM (≈ 6.13 µg/mL) | MIC [9]: 6.25 µM (≈ 12.3 µg/mL)
